This note sets out measurements from patent US20250136596A1, “MEMBRANE-ASSOCIATED TYROSINE- AND THREONINE-SPECIFIC CDC2-INHIBITORY KINASE (PKMYT1) INHIBITORS AND USES THEREOF” (Insilico Medicine IP Limited, priority 2022, published 2025).

This test addresses PKMYT1 (Homo sapiens (Human), UniProt Q99640). In words: PKMYT1 HTRF Assay. The note with it: Tracer 178, GST-Tb; compound 10 μM to 0.5 nM; read-out: MYT1 HTRF IC50. Type of test: binding. As for the experimental part: Example A: PKMYT1 HTRF Assay
Compound serial dilution is performed by Echo, and the final concentrations vary from 10 μM to 0.5 nM. This was filled by the addition of 5 μL/well of Enzyme solution to the assay plate containing the compound. The plate was centrifuged at 1000 rpm for 1 minute, and incubate 15 minutes at 25 ? . Then 5 μL/well of tracer solution (Tracer 178) was added to initiate the reaction, and incubate for 60 minutes at 25° C. Next 5 μL GST-Tb was added into the assay plate, the plate was centrifuged at 1000 rpm for 1 minute, and incubate for 15 minutes at 25 ? . The assay plate was read on Envision.

Sequence of PKMYT1 (Q99640 whole entry): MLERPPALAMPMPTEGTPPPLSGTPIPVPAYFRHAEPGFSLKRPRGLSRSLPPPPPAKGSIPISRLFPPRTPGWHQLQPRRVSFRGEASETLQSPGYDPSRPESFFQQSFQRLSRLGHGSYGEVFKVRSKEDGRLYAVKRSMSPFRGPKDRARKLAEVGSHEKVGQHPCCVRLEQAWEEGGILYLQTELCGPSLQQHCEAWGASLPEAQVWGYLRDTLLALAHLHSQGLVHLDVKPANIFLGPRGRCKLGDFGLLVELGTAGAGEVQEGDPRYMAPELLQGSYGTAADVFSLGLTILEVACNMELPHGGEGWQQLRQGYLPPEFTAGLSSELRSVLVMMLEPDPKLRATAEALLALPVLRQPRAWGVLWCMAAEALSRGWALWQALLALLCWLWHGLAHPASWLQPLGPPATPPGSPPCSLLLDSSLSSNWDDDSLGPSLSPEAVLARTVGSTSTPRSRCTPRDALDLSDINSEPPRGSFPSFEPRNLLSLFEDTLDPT

For the compound `Cc1ncc(-c2cc3c(C#N)c(-c4c(C)ccc(O)c4C)cnc3[nH]2)cn1` (atropisomer, axis not shown) [Example 32, (S)-5-(3-hydroxy-2,6-dimethylphenyl)-2-(2-methylpyrimidin-5-yl)-1H-pyrrolo[2,3-b]pyridine-4-carbonitrile], the IC50 is below 10 nM. With `Cc1ncc(-c2[nH]c3ncc(-c4c(C)ccc(O)c4C)c(C#N)c3c2Cl)cn1` (atropisomer, axis not shown) [Example 33, (S)-3-chloro-5-(3-hydroxy-2,6-dimethylphenyl)-2-(2-methylpyrimidin-5-yl)-1H-pyrrolo[2,3-b]pyridine-4-carbonitrile], the IC50 is below 10 nM. For the compound `Cc1ncc(-c2cc3c(C#N)c(-c4c(C)ccc(O)c4C)cnc3[nH]2)c(C)n1` (atropisomer, axis not shown) [Example 77, (R)-2-(2,4-dimethylpyrimidin-5-yl)-5-(3-hydroxy-2,6-dimethylphenyl)-1H-pyrrolo[2,3-b]pyridine-4-carbonitrile], the IC50 lay in the range of 10 to 50 nM.

For the compound `Cc1ccc(O)c(C)c1-c1cnc2[nH]c(-c3ccc(N4CCN(C)CC4)nc3C)nc2c1` [Example 1, 2,4-dimethyl-3-(2-(2-methyl-6-(4-methylpiperazin-1-yl)pyridin-3-yl)-3H-imidazo[4,5-b]pyridin-6-yl)phenol], the 50% inhibitory concentration (IC50) fell in the range of 50 to 500 nM. `Cc1ccc(O)c(C)c1-c1cnc2[nH]c(-c3ccc(N4CCN(C)CC4)nc3C)nc2c1C` [Example 2, 2,4-dimethyl-3-(7-methyl-2-(2-methyl-6-(4-methylpiperazin-1-yl)pyridin-3-yl)-3H-imidazo[4,5-b]pyridin-6-yl)phenol]: the IC50 lay in the range of 500 to 5000 nM.

Take `Cc1ccc(O)c(C)c1-c1cnc2[nH]c(-c3ccc(N4CCN(C)CC4)nc3)c(C)c2c1` [Example 3, 2,4-dimethyl-3-(3-methyl-2-(6-(4-methylpiperazin-1-yl)pyridin-3-yl)-1H-pyrrolo[2,3-b]pyridin-5-yl)phenol]: the IC50 lay within 50 to 500 nM. Regarding `Cc1ccc(O)c(C)c1-c1cnc2[nH]c(-c3ccc(N4CCN(C)CC4)nc3)cc2c1` [Example 4, 2,4-dimethyl-3-(2-(6-(4-methylpiperazin-1-yl)pyridin-3-yl)-1H-pyrrolo[2,3-b]pyridin-5-yl)phenol], the IC50 fell in the range of 50 to 500 nM. In the case of `Cc1ccc(-c2cc3cc(-c4c(C)ccc(O)c4C)cnc3[nH]2)cn1` [Example 5, 2,4-dimethyl-3-(2-(6-methylpyridin-3-yl)-1H-pyrrolo[2,3-b]pyridin-5-yl)phenol], the IC50 is 10 to 50 nM. In the case of `CC(=O)N1CC=C(c2cc3cc(-c4c(C)ccc(O)c4C)cnc3[nH]2)CC1` [Example 6, 1-(4-(5-(3-hydroxy-2,6-dimethylphenyl)-1H-pyrrolo[2,3-b]pyridin-2-yl)-3,6-dihydropyridin-1 (2H)-yl)ethan-1-one] it was 50 to 500 nM; in that of `Cc1ncc(-c2cc3cc(-c4c(C)ccc(O)c4C)cnc3[nH]2)cn1` [Example 7, 2,4-dimethyl-3-(2-(2-methylpyrimidin-5-yl)-1H-pyrrolo[2,3-b]pyridin-5-yl)phenol], 10 to 50 nM. Regarding `COc1cncc(-c2cc3cc(-c4c(C)ccc(O)c4C)cnc3[nH]2)c1` [Example 8, 3-(2-(5-methoxypyridin-3-yl)-1H-pyrrolo[2,3-b]pyridin-5-yl)-2,4-dimethylphenol], the IC50 is 10 to 50 nM. Consider `Cc1ccc(O)c(C)c1-c1cnc2[nH]c(-c3ccn(C)c(=O)c3)cc2c1` [Example 9, 4-(5-(3-hydroxy-2,6-dimethylphenyl)-1H-pyrrolo[2,3-b]pyridin-2-yl)-1-methylpyridin-2 (1H)-one], for which the IC50 fell in the range of 10 to 50 nM.

In the case of `Cc1ccc(-c2cc3c(Cl)c(-c4c(C)ccc(O)c4C)cnc3[nH]2)cn1` [Example 10, 3-(4-chloro-2-(6-methylpyridin-3-yl)-1H-pyrrolo[2,3-b]pyridin-5-yl)-2,4-dimethylphenol], the IC50 was below 10 nM. Regarding `Cc1ccc(-c2cc3nc(-c4c(C)ccc(O)c4C)cnc3[nH]2)cn1` [Example 11, 2,4-dimethyl-3-(6-(6-methylpyridin-3-yl)-5H-pyrrolo[2,3-b]pyrazin-2-yl)phenol], the IC50 was below 10 nM. To `Cc1ncc(-c2[nH]c3ncc(-c4c(C)ccc(O)c4C)nc3c2F)cn1` [Example 12, 3-(7-fluoro-6-(2-methylpyrimidin-5-yl)-5H-pyrrolo[2,3-b]pyrazin-2-yl)-2,4-dimethylphenol] belongs 10 to 50 nM; to `Cc1ncc(-c2[nH]c3ncc(-c4c(C)ccc(O)c4C)nc3c2C)cn1` [Example 13, 2,4-dimethyl-3-(7-methyl-6-(2-methylpyrimidin-5-yl)-5H-pyrrolo[2,3-b]pyrazin-2-yl)phenol], 10 to 50 nM; to `Cc1ccc(O)c(C)c1-c1cnc2[nH]c(-c3cnc(N)nc3)c(C#CC(C)(C)O)c2n1` [Example 14, 3-(6-(2-aminopyrimidin-5-yl)-7-(3-hydroxy-3-methylbut-1-yn-1-yl)-5H-pyrrolo[2,3-b]pyrazin-2-yl)-2,4-dimethylphenol], below 10 nM. `Cc1ncc(-c2cc3nc(-c4c(C)ccc(O)c4C)cnc3[nH]2)cn1` [Example 15, 2,4-dimethyl-3-(6-(2-methylpyrimidin-5-yl)-5H-pyrrolo[2,3-b]pyrazin-2-yl)phenol]: the IC50 lay within 10 to 50 nM. On to `Cc1ncc(-c2[nH]c3ncc(-c4c(C)ccc(O)c4C)nc3c2Cl)cn1` [Example 16, 3-(7-chloro-6-(2-methylpyrimidin-5-y1)-5H-pyrrolo[2,3-b]pyrazin-2-yl)-2,4-dimethylphenol], for which the IC50 was below 10 nM. In the case of `Cc1ccc(O)c(C)c1-c1cnc2[nH]c(-c3cnc(N4CC(C)(O)C4)nc3)c(Cl)c2n1` [Example 17, 1-(5-(7-chloro-2-(3-hydroxy-2,6-dimethylphenyl)-5H-pyrrolo[2,3-b]pyrazin-6-yl)pyrimidin-2-yl)-3-methylazetidin-3-ol] it was below 10 nM; in that of `Cc1ccc(O)c(C)c1-c1cnc2[nH]c(-c3cnc(N4CC(O)C4)nc3)cc2n1` [Example 18, 1-(5-(2-(3-hydroxy-2,6-dimethylphenyl)-5H-pyrrolo[2,3-b]pyrazin-6-yl)pyrimidin-2-yl)azetidin-3-ol], below 10 nM; in that of `Cc1ncc(-c2cc3nc(-c4c(C)ccc(O)c4C)cnc3[nH]2)s1` [Example 19, 2,4-dimethyl-3-(6-(2-methylthiazol-5-y1)-5H-pyrrolo[2,3-b]pyrazin-2-yl)phenol], 10 to 50 nM.

As to `Cc1ncc(-c2[nH]c3ncc(-c4c(C)ccc(O)c4C)nc3c2C#CC(C)(C)O)cn1` [Example 20, 3-(7-(3-hydroxy-3-methylbut-1-yn-1-yl)-6-(2-methylpyrimidin-5-yl)-5H-pyrrolo[2,3-b]pyrazin-2-yl)-2,4-dimethylphenol], the IC50 is below 10 nM.

With `Cc1ccc(O)c(C)c1-c1cnc2[nH]c(-c3cnc(N4C[C@@H]5C[C@H]4CO5)nc3)c(C#CC(C)(C)O)c2n1` [Example 21, 3-(6-(2-((1S,4S)-2-oxa-5-azabicyclo[2.2.1]heptan-5-yl)pyrimidin-5-yl)-7-(3-hydroxy-3-methylbut-1-yn-1-yl)-5H-pyrrolo[2,3-b]pyrazin-2-yl)-2,4-dimethylphenol], the IC50 is below 10 nM.

As for `Cc1ccc(O)c(C)c1-c1cnc2[nH]c(-c3ccc4scnc4c3)cc2c1` [Example 22, 3-(2-(benzo[d]thiazol-5-yl)-1H-pyrrolo[2,3-b]pyridin-5-yl)-2,4-dimethylphenol], the IC50 fell in the range of 50 to 500 nM.

As to `Cc1ncc(-c2[nH]c3ncc(-c4c(C)ccc(O)c4C)c(Cl)c3c2F)cn1` [Example 24, (S)-3-(4-chloro-3-fluoro-2-(2-methylpyrimidin-5-yl)-1H-pyrrolo[2,3-b]pyridin-5-yl)-2,4-dimethylphenol], the IC50 was below 10 nM. For `Cc1ccc(O)c(C)c1-c1cnc2[nH]c(-c3cnc(N4CC(C)(O)C4)nc3)cc2c1Cl` [Example 25, (S)-1-(5-(4-chloro-5-(3-hydroxy-2,6-dimethylphenyl)-1H-pyrrolo[2,3-b]pyridin-2-yl)pyrimidin-2-yl)-3-methylazetidin-3-ol], the IC50 is below 10 nM.

Take `Cc1ncc(-c2cc3c(C)c(-c4c(C)ccc(O)c4C)cnc3[nH]2)cn1` [Example 26, (R)-2,4-dimethyl-3-(4-methyl-2-(2-methylpyrimidin-5-yl)-1H-pyrrolo[2,3-b]pyridin-5-yl)phenol]: the IC50 was below 10 nM. Turning to `Cc1ncc(-c2[nH]c3ncc(-c4c(C)ccc(O)c4C)cc3c2C#N)cn1` [Example 27, 5-(3-hydroxy-2,6-dimethylphenyl)-2-(2-methylpyrimidin-5-yl)-1H-pyrrolo[2,3-b]pyridine-3-carbonitrile], the IC50 was in the range of 10 to 50 nM. For `Cc1cnc(-c2cc3cc(-c4c(C)ccc(O)c4C)cnc3[nH]2)cn1` [Example 29, 2,4-dimethyl-3-(2-(5-methylpyrazin-2-yl)-1H-pyrrolo[2,3-b]pyridin-5-yl)phenol], the half-inhibitory concentration (IC50) was 50 to 500 nM. To `Cc1ncc(-c2cc3c(N)c(-c4c(C)ccc(O)c4C)cnc3[nH]2)cn1` [Example 30, 3-(4-amino-2-(2-methylpyrimidin-5-yl)-1H-pyrrolo[2,3-b]pyridin-5-yl)-2,4-dimethylphenol] belongs 50 to 500 nM. Regarding `Cc1ncc(-c2cc3c(C(F)(F)F)c(-c4c(C)ccc(O)c4C)cnc3[nH]2)cn1` [Example 31, (R)-2,4-dimethyl-3-(2-(2-methylpyrimidin-5-yl)-4-(trifluoromethyl)-1H-pyrrolo[2,3-b]pyridin-5-yl)phenol], the IC50 is below 10 nM. For `Cc1ncc(-c2cc3c(C(N)=O)c(-c4c(C)ccc(O)c4C)cnc3[nH]2)cn1` [Example 34, 5-(3-hydroxy-2,6-dimethylphenyl)-2-(2-methylpyrimidin-5-yl)-1H-pyrrolo[2,3-b]pyridine-4-carboxamide], the 50% inhibitory concentration (IC50) lay within 50 to 500 nM.
